Measured values taken from patent publication US8771724B2, “Percutaneous absorption enhancer and transdermal preparation using the same” (TOA EIYO Ltd., priority 2008, dated 2014).
Counter-ions that a name gives are not always drawn. Like-named read-outs stand apart in the source and are kept apart here.

Description: A permeation test was carried out based on the following procedure. First, an excised skin (Yucatan miniature swine or hairless mouse) was placed in a vertical diffusion cell in which temperature was kept at 37° C., and a receptor phase was filled with 7 mL of a phosphate-buffered saline (PBS, a pH of 7.5). The whole was left to stand still for one hour. […] Then, the test was started. […] Note that after each of the collections, an equivalent amount of PBS was supplemented into the receptor phase. Each PBS collected from the receptor phase was measured for a drug concentration by an HPLC method. […] Further, the slant of a permeation curve at the time when the permeation rate reached a steady state was used to calculate a skin permeation rate (μg/hr/cm^2).
An enhancing effect on drug permeation was evaluated for the case where a 1% isopropyl myristate solution was used as a control and for the case where 1% each of n-octyl-β-D-thioglucopyranoside and dioctyl sodium sulfosuccinate was added.

SMILES | Percutaneous absorption enhancing action (Example/Comparative Example), cumulative permeation amount for 24 hours (hairless, mouse, 24 h, pH 7.5) | Percutaneous absorption enhancing action (Example/Comparative Example), skin permeation rate (hairless, mouse, pH 7.5) | Percutaneous absorption enhancing action (Example/Comparative Example), cumulative permeation amount for 24 hours | Percutaneous absorption enhancing action (Example/Comparative Example), skin permeation rate
COc1cc(N)cn[n+]1-c1ccccc1 [Amezinium metilsulfate, amezinium metilsulfate] | 7 times | 24 times | – | –
CC1(C)S[C@@H]2[C@H](NC(=O)[C@H](N)c3ccc(O)cc3)C(=O)N2[C@H]1C(=O)O [Amoxicillin trihydrate, amoxicillin trihydrate] | 234 times | 254 times | – | –
N[C@@H](C(=O)N[C@@H]1C(=O)N2C(C(=O)O)=C(Cl)CS[C@H]12)c1ccccc1 [Cefaclor, cefaclor] | 420 times | 962 times | – | –
NNc1nncc2ccccc12 [Hydralazine hydrochloride, hydralazine hydrochloride] | 344 times | 1,411 times | – | –
N[C@@H](Cc1ccc(O)c(O)c1)C(=O)O [Levodopa, levodopa] | 461 times | 289 times | – | –
CN(Cc1cnc2nc(N)nc(N)c2n1)c1ccc(C(=O)N[C@@H](CCC(=O)O)C(=O)O)cc1 [Methotrexate, methotrexate] | 250 times | 180 times | – | –
CCCc1nc(C(C)(C)O)c(C(=O)OCc2oc(=O)oc2C)n1Cc1ccc(-c2ccccc2-c2nnn[nH]2)cc1 [Olmesartan medoxomil, olmesartan medoxomil] | 75 times | 94 times | – | –
CCC[C@H](N[C@@H](C)C(=O)N1[C@H](C(=O)O)C[C@@H]2CCCC[C@@H]21)C(=O)OCC [Perindopril erbumine, perindopril erbumine] | 3 times | 12 times | – | –
CNC[C@H](O)c1cccc(O)c1 [Phenylephrine hydrochloride, phenylephrine hydrochloride] | 4 times | 8 times | – | –
CC(C)c1nc(N(C)S(C)(=O)=O)nc(-c2ccc(F)cc2)c1/C=C/[C@@H](O)C[C@@H](O)CC(=O)[O-].CC(C)c1nc(N(C)S(C)(=O)=O)nc(-c2ccc(F)cc2)c1/C=C/[C@@H](O)C[C@@H](O)CC(=O)[O-].[Ca+2] [Rosuvastatin calcium, rosuvastatin calcium] | – | – | 46 times | 138 times
C[C@]1(Cn2ccnn2)[C@H](C(=O)O)N2C(=O)C[C@H]2S1(=O)=O [Tazobactam, tazobactam] | 6 times | 21 times | – | –
Cc1cccc(Nc2ccncc2S(=O)(=O)NC(=O)NC(C)C)c1 [Torasemide, torasemide] | 29 times | 40 times | – | –
CC(=O)N[C@H]1[C@H]([C@H](O)[C@H](O)CO)OC(C(=O)O)=C[C@@H]1N=C(N)N [Zanamivir hydrate, zanamivir hydrate] | 47 times | 92 times | – | –

Further lines, results first:

Percutaneous absorption enhancing action (Example/Comparative Example), cumulative permeation amount for 24 hours (hairless, mouse, 24 h, pH 7.5) | Percutaneous absorption enhancing action (Example/Comparative Example), skin permeation rate (hairless, mouse, pH 7.5) | Percutaneous absorption enhancing action (Example/Comparative Example), cumulative permeation amount for 24 hours | Percutaneous absorption enhancing action (Example/Comparative Example), skin permeation rate | SMILES
15 times | 183 times | – | – | CCOc1nc2cccc(C(=O)O)c2n1Cc1ccc(-c2ccccc2-c2nnn[nH]2)cc1 [Candesartan, candesartan]
13 times | 16 times | – | – | CCOC(=O)[C@H](CCc1ccccc1)N[C@H]1CCCN2CCC[C@@H](C(=O)O)N2C1=O [Cilazapril, cilazapril]
42 times | 26 times | – | – | CCOC(=O)[C@H](CCc1ccccc1)N[C@@H](C)C(=O)N(CC(=O)O)C1Cc2ccccc2C1 [Delapril hydrochloride, delapril hydrochloride]
4 times | 44 times | – | – | CCOC(=O)[C@H](CCc1ccccc1)N[C@@H](C)C(=O)N1CCC[C@H]1C(=O)O [Enalapril maleate, enalapril maleate]
28 times | 54 times | – | – | CC(C)n1c(/C=C/C(O)CC(O)CC(=O)O)c(-c2ccc(F)cc2)c2ccccc21 (centres unmarked) [Fluvastatin sodium, fluvastatin sodium]
12 times | 40 times | – | – | CCOC(=O)[C@H](CCc1ccccc1)N[C@@H](C)C(=O)N1C(=O)N(C)C[C@H]1C(=O)O [Imidapril hydrochloride, imidapril hydrochloride]
34 times | 51 times | – | – | NS(=O)(=O)c1cc(C(=O)O)cc(N2CCCC2)c1Oc1ccccc1 [Piretanide, piretanide]
5 times | 8 times | – | – | CCOC(=O)[C@H](CCc1ccccc1)N[C@@H](C)C(=O)N1[C@H](C(=O)O)C[C@@H]2CCC[C@@H]21 [Ramipril, ramipril]
27 times | 33 times | – | – | CCOc1cc(CC(=O)N[C@@H](CC(C)C)c2ccccc2N2CCCCC2)ccc1C(=O)O [Repaglinide, repaglinide]
27 times | 46 times | – | – | CCOC(=O)[C@H](CCc1ccccc1)N[C@H]1CS[C@H](c2cccs2)CN(CC(=O)O)C1=O [Temocapril hydrochloride, temocapril hydrochloride]
20 times | 18 times | – | – | COc1ccccc1N1CCN(CCCNc2cc(=O)n(C)c(=O)n2C)CC1 [Urapidil, urapidil]
4 times | 12 times | – | – | CCCCC(=O)N(Cc1ccc(-c2ccccc2-c2nnn[nH]2)cc1)[C@H](C(=O)O)C(C)C [Valsartan, valsartan]
